Reference: ChEMBL document CHEMBL1142443, “Design and synthesis of reboxetine analogs morpholine derivatives as selective norepinephrine reuptake inhibitors” (Bioorg Med Chem Lett, 2008)

Experiments:
[1] = target: Sodium-dependent noradrenaline transporter (Homo sapiens) (UniProt P23975); experiment: Binding affinity at NET
[2] = target: Sodium-dependent serotonin transporter (Homo sapiens) (UniProt P31645); experiment: Binding affinity at SERT
Chain of Sodium-dependent serotonin transporter (Homo sapiens) (P31645 whole entry, looked up): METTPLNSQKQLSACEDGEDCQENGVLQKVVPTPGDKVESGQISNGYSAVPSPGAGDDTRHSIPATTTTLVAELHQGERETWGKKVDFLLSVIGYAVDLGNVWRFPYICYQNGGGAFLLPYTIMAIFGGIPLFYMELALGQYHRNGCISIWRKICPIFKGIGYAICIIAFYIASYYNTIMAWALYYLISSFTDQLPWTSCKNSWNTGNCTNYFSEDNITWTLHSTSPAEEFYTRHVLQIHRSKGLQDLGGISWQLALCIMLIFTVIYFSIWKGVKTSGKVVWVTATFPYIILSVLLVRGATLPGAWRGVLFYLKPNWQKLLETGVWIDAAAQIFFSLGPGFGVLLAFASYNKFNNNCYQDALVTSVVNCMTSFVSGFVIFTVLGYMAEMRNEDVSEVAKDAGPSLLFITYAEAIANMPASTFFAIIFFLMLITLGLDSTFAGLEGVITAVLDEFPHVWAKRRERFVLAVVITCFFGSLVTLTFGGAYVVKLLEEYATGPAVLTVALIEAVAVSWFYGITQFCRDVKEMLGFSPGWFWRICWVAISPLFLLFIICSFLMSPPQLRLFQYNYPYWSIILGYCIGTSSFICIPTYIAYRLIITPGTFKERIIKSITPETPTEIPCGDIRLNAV

Chain of Sodium-dependent noradrenaline transporter (Homo sapiens) (P23975 whole entry): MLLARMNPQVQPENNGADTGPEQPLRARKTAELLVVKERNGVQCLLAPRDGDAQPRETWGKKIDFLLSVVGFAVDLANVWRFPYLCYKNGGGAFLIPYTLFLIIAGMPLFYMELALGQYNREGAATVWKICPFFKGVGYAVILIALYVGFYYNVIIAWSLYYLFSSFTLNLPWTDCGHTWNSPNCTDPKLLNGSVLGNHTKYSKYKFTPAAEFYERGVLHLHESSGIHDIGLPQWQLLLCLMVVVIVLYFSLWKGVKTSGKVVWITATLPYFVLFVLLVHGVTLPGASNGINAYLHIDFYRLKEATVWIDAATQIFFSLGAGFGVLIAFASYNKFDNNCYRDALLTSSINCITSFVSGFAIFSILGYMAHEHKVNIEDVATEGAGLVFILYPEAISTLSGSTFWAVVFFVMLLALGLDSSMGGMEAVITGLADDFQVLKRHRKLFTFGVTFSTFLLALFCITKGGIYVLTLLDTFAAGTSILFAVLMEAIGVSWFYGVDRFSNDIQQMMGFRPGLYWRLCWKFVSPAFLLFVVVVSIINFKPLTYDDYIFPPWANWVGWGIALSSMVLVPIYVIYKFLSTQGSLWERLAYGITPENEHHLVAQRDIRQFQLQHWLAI

Fc1cccc(F)c1O[C@H](C1=CCCC1)[C@@H]1CNCCO1
Activity [1]: 2570 nM | Activity [2]: 2530 nM

Brc1ccccc1O[C@@H](c1ccccc1)[C@@H]1CNCCO1
Activity [1]: 3 nM | Activity [2]: 477 nM

CCOc1ccccc1O[C@@H](c1ncccc1C)[C@@H]1CNCCO1
Activity [1]: 27 nM | Activity [2]: 3680 nM

Fc1cccc(OC(c2ccccc2)C2CNCCO2)c1 (stereo not drawn)
Activity [1]: 11 nM | Activity [2]: 13 nM

Fc1cccc(F)c1O[C@@H](c1ccccn1)[C@@H]1CNCCO1
Activity [1]: 6 nM | Activity [2]: 8980 nM

CCOc1ccccc1O[C@@H](c1cccnc1)[C@@H]1CNCCO1
Activity [1]: 114 nM | Activity [2]: > 10000 nM

CCOc1ccccc1O[C@@H](c1ccc(CC)cn1)[C@@H]1CNCCO1
Activity [1]: 49 nM | Activity [2]: 8210 nM

Brc1ccccc1O[C@@H](c1ccccc1)[C@H]1CNCCO1
Activity [1]: 17 nM | Activity [2]: 105 nM

Fc1ccccc1O[C@@H](c1ccccc1)[C@@H]1CNCCO1
Activity [1]: 7 nM | Activity [2]: 6390 nM

Fc1cccc(F)c1O[C@@H](c1ncco1)[C@@H]1CNCCO1
Activity [1]: 9 nM | Activity [2]: > 10000 nM

Fc1cccc(F)c1O[C@@H](Cc1ccccc1)[C@@H]1CNCCO1
Activity [1]: 66 nM | Activity [2]: 912 nM

CCOc1ccccc1O[C@@H](c1ccccn1)[C@@H]1CNCCO1
Activity [1]: 7 nM | Activity [2]: 6910 nM

Cc1coc([C@H](Oc2c(F)cccc2F)[C@@H]2CNCCO2)n1 (stereo in doubt; form 2)
Activity [1]: 19 nM | Activity [2]: > 10000 nM

CCOc1ccccc1O[C@@H](c1cccc(OC)n1)[C@@H]1CNCCO1
Activity [1]: 28 nM | Activity [2]: 676 nM

COc1cccc(F)c1O[C@@H](c1ccccc1)[C@@H]1CNCCO1
Activity [1]: 2 nM | Activity [2]: > 3500 nM

Cc1ccc(C(C)C)c(O[C@@H](c2ccccn2)[C@@H]2CNCCO2)c1
Activity [1]: 457 nM | Activity [2]: > 8400 nM

Fc1ccc(O[C@@H](c2ccccc2)[C@@H]2CNCCO2)c(F)c1
Activity [1]: 16 nM | Activity [2]: 617 nM

Fc1cccc(F)c1O[C@@H](c1nccs1)[C@@H]1CNCCO1
Activity [1]: 19 nM | Activity [2]: > 10000 nM

Cc1coc([C@@H](Oc2c(F)cccc2F)[C@@H]2CNCCO2)n1
Activity [1]: 6940 nM | Activity [2]: > 10000 nM

CS(=O)(=O)c1ccccc1O[C@@H](c1ccccc1)[C@@H]1CNCCO1
Activity [1]: 1360 nM | Activity [2]: > 10000 nM

c1ccc([C@H](Oc2ccccc2C2CC2)[C@@H]2CNCCO2)cc1
Activity [1]: 2 nM | Activity [2]: 482 nM

Fc1cccc(F)c1O[C@@H](c1cccc2c1OCC2)[C@@H]1CNCCO1
Activity [1]: 13 nM | Activity [2]: 445 nM

N#Cc1ccccc1O[C@@H](c1ccccc1)[C@@H]1CNCCO1
Activity [1]: 18 nM | Activity [2]: > 10000 nM

Fc1cccc(F)c1O[C@@H](C1=CCCC1)[C@@H]1CNCCO1
Activity [1]: 20 nM | Activity [2]: 3700 nM

Fc1cccc(F)c1O[C@@H](c1ccccc1)[C@@H]1CNCCO1
Activity [1]: 7 nM | Activity [2]: 1210 nM

CCOc1cccc(F)c1O[C@@H](c1ccccc1)[C@@H]1CNCCO1
Activity [1]: 4 nM | Activity [2]: 2570 nM

Fc1ccc(O[C@@H](c2ccccc2)[C@@H]2CNCCO2)cc1
Activity [1]: 21 nM | Activity [2]: 1620 nM

c1ccc([C@H](Oc2ccccc2C2CC2)[C@H]2CNCCO2)cc1
Activity [1]: 35 nM | Activity [2]: 75 nM

Cc1coc([C@H](Oc2c(F)cccc2F)[C@@H]2CNCCO2)n1 (stereo in doubt; form 1)
Activity [1]: 18 nM | Activity [2]: > 4500 nM
